The values below come from patent US7592352B2, “Substituted thieno and furo-pyridines” (SmithKline Beecham Corporation, priority 2003, dated 2009).

As a reminder, the IC50 is the point on the concentration scale where inhibition reaches its midpoint. Low values mean higher potency, high ones lower potency.

Format in all cases: biochemical
One experiment deals with T1, Src (Homo sapiens, UniProt P12931).
T1 construct: precede the first globular domain (amino acids 86-536, BR# 455)
The experiment is described as follows: Src enzyme assay (HTRF). Particulars: N-85 Src, 10 μM ATP, pIC50 = -log10(IC50) in Molar. An excerpt: The Src enzyme assay used Homogeneous Time Resolved Fluorescence (HTRF) assay technology to measure the enzyme activity. HTRF is based on fluorescence resonance energy transfer between a Europium-labeled phospho-tyrosine antibody (donor) and Allophycocyanin (APC) conjugated to streptavidin (acceptor). This method measured the ability of the purified enzymes to catalyze the transfer of the γ-phosphate from ATP onto tyrosine residues in a biotinylated synthetic peptide. The peptide used for the Src enzyme activity assay was biotin-(6-amino caproic acid)-AAAQQIYGQI-NH2. The enzyme used was baculovirus expressed N-85 Src with the deletion of first 85 amino acids, which precede the first globular domain (amino acids 86-536, BR# 455).
To preactivate enzyme, 180 μM N-85 Src was incubated with 5 mM ATP and 50 mM MgCl2 for 40 min on ice. The preactivated enzyme (0.4 nM final concentration) was then incubated for 30 min at room temperature in either 96-well or 384-well plates containing 200 nM peptide, 10 μM ATP, 0.05 mg/ml MgCl2, and test compound in 0.1 M HEPES pH 7.5. Each reaction was first stopped by the addition of 45 mM EDTA in 0.1 M HEPES pH7.5, then, HTRF reagent was added to measure the signal. After 10 min incubation at room temperature, the plates were read at 665 nm on a Wallac Victor reader with a time delay. The percent inhibition of activity was calculated relative to positive (C1) and negative (C2, EDTA added) control wells using, 100*(1−(U1−C2)/(C1−C2)). The concentration of test compound yielding 50% inhibition was determined using the equation, y=((Vmax*x)/(K+x))+Y2, where “K” was equal to the IC50. The IC50 values were converted to pIC50 values, i.e., −log IC50 in Molar concentration.
Background: TR-FRET usually uses a lanthanide donor and a delayed reading to cut background.

The target in the next experiment is T2, human TIE2 (Homo sapiens, UniProt Q02763).
T2 construct: made in house
The experiment in a line: TIE-2 enzyme assay (LANCE method). Particulars: GST-TIE2, 80 uM ATP, pIC50 = -log10(IC50) in Molar. From the text: The TIE-2 enzyme assay used the LANCE method (Wallac) and GST-TIE2, baculovirus expressed recombinant constructs of the intracellular domains of human TIE2 (amino acids 762-1104, GenBank Accession # L06139) tagged by GST). The method measured the ability of the purified enzymes to catalyse the transfer of the γ-phosphate from ATP onto tyrosine residues in a biotinylated synthetic peptide, D1-15 (biotin-C6-LEARLVAYEGWVAGKKKamide). This peptide phosphorylation was detected using the following procedure: for enzyme preactivation, GST-TIE2 was incubated for 30 mins at room temperature with 2 mM ATP, 5 mM MgCl2 and 12.5 mM DTT in 22.5 mM HEPES buffer (pH7.4). Preactivated GST-TIE2 was incubated for 30 mins at room temperature in 96 well plates with 1 uM D1-15 peptide, 80 uM ATP, 10 mM MgCl2, 0.1 mg/ml BSA and the test compound (diluted from a 10 mM stock in DMSO, final DMSO concentration was 2.4%) In 1 mM HEPES (pH7.4). The reaction was stopped by the addition of EDTA (final concentration 45 mM). Streptavidin linked-APC (allophycocyanin, Molecular Probe) and Europium-labeled anti-phosphorylated tyrosine antibody (Wallac) were then added at the final concentration of 17 ug/well and 2.1 ug/well, respectively. The APC signal was measured using an ARVO multilabel counter. (Wallac Berthold Japan). The percent inhibition of activity was calculated relative to blank control wells. The concentration of test compound that inhibits 50% of activity (IC50) was interpolated using nonlinear regression (Levernberg-Marquardt) and the equation, y=Vmax (1−x/(K+x))+Y2, where “K” was equal to the IC50. The IC50 values were converted to pIC50 values, i.e., −log IC50 in Molar concentration.

In the next experiment the target is T3, human EphB4 (Homo sapiens, UniProt P54760).
T3 construct: human EphB4 (amino acids 600-914, BR # 21454)
T3 sequence (P54760 600-914): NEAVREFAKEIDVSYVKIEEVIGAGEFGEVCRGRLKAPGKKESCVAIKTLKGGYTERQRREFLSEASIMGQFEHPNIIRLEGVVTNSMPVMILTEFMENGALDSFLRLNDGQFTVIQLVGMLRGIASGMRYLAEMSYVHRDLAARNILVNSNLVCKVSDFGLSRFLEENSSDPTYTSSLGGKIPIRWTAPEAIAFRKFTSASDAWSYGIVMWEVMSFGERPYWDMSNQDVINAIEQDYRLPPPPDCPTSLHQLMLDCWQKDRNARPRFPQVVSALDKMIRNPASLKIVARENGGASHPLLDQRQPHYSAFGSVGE
The experiment in a line: EphB4 enzyme assay (Scintillation Proximity Assay). The note with it: GST-EphB4, 1 uM ATP, SPA; pIC50 = -log10(IC50) in Molar. On the procedure: The EphB4 enzyme assay used Scintillation Proximity Assay technology to measure enzyme activity. This method measured the ability of the purified enzymes to catalyse the transfer of the γ-phosphate from ATP onto tyrosine residues in a biotinylated synthetic peptide. […] Each reaction was stopped by the addition of 0.1 mg Streptavidin SPA beads in 100 mM EDTA/1×PBS, pH 7.2. The signal was measured using a Wallac Trilux scintillation counter (Wallac). The percent inhibition of activity was calculated relative to positive (C1) and negative (C2) control wells using, 100*(1−(U1−C2)/(C1−C2)). The concentration of test compound was determined using the equation, y=((Vmax*x)/(K+x))+Y2, where “K” was equal to the IC50. The IC50 values were converted to pIC50 values, i.e., −log IC50 in Molar concentration.
(In general: In a scintillation proximity assay essentially only radioactivity close to the scintillant gives light.)

The next experiment has as its target T4, VEGFR-2 (Homo sapiens, UniProt P35968).
T4 construct: GST-VEGFR2, baculovirus expressed recombinant constructs of the intracellular domains; made in house
The experiment in a line: VEGFR-2 enzyme assay (LANCE method). The note with it: GST-VEGFR2, 75 uM ATP, pIC50 = -log10(IC50) in Molar. The method, then:
The VEGF enzyme assay used the LANCE method (Wallac) and GST-VEGFR2, baculovirus expressed recombinant constructs of the intracellular domains of human […] tagged by GST. […] The reaction was stopped by the addition of EDTA (final concentration 50 mM). […] The APC signal was measured using an ARVO multilabel counter (Wallac Berthold, Japan). The percent inhibition of activity was calculated relative to blank control wells. […] The IC50 values were converted to pIC50 values, i.e., −log IC50 in Molar concentration.

T2 sequence (Q02763 762-1104): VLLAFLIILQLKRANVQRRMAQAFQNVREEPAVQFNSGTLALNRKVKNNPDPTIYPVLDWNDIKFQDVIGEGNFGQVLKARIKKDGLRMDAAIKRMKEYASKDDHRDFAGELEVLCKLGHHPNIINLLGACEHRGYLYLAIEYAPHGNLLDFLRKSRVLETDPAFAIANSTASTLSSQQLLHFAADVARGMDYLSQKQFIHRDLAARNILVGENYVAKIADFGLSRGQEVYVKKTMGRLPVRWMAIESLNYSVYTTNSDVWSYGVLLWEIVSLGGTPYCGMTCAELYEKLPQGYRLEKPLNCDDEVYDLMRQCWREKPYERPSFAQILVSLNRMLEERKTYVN
T1 sequence (P12931 86-536): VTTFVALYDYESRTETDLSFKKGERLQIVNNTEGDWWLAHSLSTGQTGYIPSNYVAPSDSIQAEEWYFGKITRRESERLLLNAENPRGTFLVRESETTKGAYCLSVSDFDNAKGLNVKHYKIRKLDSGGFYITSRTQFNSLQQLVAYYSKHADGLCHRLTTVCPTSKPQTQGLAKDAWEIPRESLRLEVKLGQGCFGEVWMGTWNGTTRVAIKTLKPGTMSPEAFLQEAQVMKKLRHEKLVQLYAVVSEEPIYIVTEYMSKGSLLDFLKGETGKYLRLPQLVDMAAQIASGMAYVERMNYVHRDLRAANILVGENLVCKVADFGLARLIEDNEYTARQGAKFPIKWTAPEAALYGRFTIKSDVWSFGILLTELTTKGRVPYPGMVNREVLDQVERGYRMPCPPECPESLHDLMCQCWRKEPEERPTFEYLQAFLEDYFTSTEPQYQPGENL
T4 sequence (P35968 786-1356 limits assumed): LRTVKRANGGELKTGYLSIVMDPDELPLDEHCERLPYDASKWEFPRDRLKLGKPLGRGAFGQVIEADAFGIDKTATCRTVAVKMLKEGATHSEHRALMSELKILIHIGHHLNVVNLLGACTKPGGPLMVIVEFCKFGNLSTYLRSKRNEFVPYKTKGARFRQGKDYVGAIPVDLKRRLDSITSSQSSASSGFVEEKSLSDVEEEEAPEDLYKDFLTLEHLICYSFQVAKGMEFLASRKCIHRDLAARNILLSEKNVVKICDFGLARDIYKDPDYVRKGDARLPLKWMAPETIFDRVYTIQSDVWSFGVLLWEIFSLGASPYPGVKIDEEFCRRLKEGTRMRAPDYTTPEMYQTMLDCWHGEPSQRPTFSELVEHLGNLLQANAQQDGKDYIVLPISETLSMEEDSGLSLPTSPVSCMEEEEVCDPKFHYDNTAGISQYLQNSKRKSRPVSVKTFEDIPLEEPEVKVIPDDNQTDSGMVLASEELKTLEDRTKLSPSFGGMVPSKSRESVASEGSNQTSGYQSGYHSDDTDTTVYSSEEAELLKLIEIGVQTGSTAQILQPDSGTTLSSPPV

Take `Nc1ncc(-c2cccc(Cl)c2)c2occ(-c3ccc(NC(=O)Nc4cc(C(F)(F)F)ccc4F)cc3)c12` [Ia]: the IC50 at Src is 10.2 to 100 nM.

On to `COc1cc(-c2cnc(N)c3c(-c4ccc5[nH]ccc5c4)csc23)cc(OC)c1OC` [Iaa, 4-Amino-3 (1H-Indol-5-yl)-7-(3,4,5-trimethoxyphenyl)-thieno[3,2-c]pyridine], for which the IC50 against human TIE2 is 102 to 1000 nM.

For the compound `Nc1nccc2occ(-c3ccc(NC(=O)Nc4cc(C(F)(F)F)ccc4F)cc3)c12` [Ib], the IC50 at human TIE2 is 10.2 to 100 nM; on human EphB4 it was 3.24 to 31.6 nM; against VEGFR-2, 3.24 to 31.6 nM; at Src, 102 to 1000 nM.

For `Nc1ncc(-c2cccc(S(N)(=O)=O)c2)c2occ(-c3ccc(NC(=O)Nc4cc(C(F)(F)F)ccc4F)cc3)c12` [Id], the values for the concentration for half-maximal inhibition (IC50) against human TIE2, at human EphB4 and at Src were 1 to 10 nM, 0.316 to 3.16 nM and 1 to 10 nM, respectively.

As to `Nc1ncc(-c2cccnc2)c2occ(-c3ccc(NC(=O)Nc4cc(C(F)(F)F)ccc4F)cc3)c12` [Ie], the IC50 against VEGFR-2 was 0.316 to 3.16 nM.
